Experimental data: the NIST ThermoML archive (doi:10.1016/j.tca.2012.07.004)
Numbers after ± are expanded uncertainties.

Assay: xn = mol fraction of the nth substance listed
Settings: 101 kPa, Liquid; for mass density: Vibrating tube method; for viscosity: Vibrating wire viscometry; for speed of sound: ultrasonic interferometer

C[NH+](C)C.O=P([O-])(O)O [trimethylammonium dihydrogen phosphate] + CN1CCCC1=O
Settings	mass density, 308.15 K [kg/m3]	mass density, 313.15 K [kg/m3]	speed of sound, 308.15 K [m/s]	speed of sound, 313.15 K [m/s]	viscosity, 308.15 K [mPa·s]	viscosity, 313.15 K [mPa·s]
x1 = 0.0201	1028.37 ± 0.59	1023.28 ± 0.55	1550 ± 20	1544 ± 20	1.54 ± 0.1	1.47 ± 0.1
x1 = 0.0391	1038.12 ± 0.65	1031.97 ± 0.61	1564 ± 20	1560 ± 20	2.3 ± 0.16	2.82 ± 0.18
x1 = 0.1028	1073.87 ± 0.66	1065.17 ± 0.63	1587 ± 20	1588 ± 20	8.69 ± 0.53	6.92 ± 0.42
x1 = 0.1462	1095.84 ± 0.64	1086.37 ± 0.62	1606 ± 20	1608 ± 20	11.98 ± 0.73	9.58 ± 0.58
x1 = 0.211	1126.55 ± 0.61	1116.83 ± 0.61	1633 ± 20	1637 ± 20	16.24 ± 0.98	12.74 ± 0.77
x1 = 0.3267	1173.1 ± 0.63	1161.79 ± 0.62	1663 ± 20	1672 ± 20	20.11 ± 1.2	16.43 ± 0.99
x1 = 0.3746	1189.72 ± 0.61	1178.19 ± 0.6	1673 ± 20	1684 ± 20	20.71 ± 1.2	16.55 ± 1
x1 = 0.4469	1213.08 ± 0.61	1201.94 ± 0.61	1688 ± 20	1702 ± 20	20.64 ± 1.2	16.53 ± 1
x1 = 0.5751	1248.1 ± 0.63	1237.68 ± 0.63	1693 ± 20	1708 ± 20	18.68 ± 1.1	15.2 ± 0.92
x1 = 0.7093	1279.47 ± 0.65	1270.77 ± 0.65	1691 ± 20	1704 ± 20	14.21 ± 0.86	11.9 ± 0.72
x1 = 0.852	1311.88 ± 0.68	1305.61 ± 0.68	1685 ± 20	1697 ± 20	8.83 ± 0.53	7.17 ± 0.43
x1 = 0.9413	1332.36 ± 0.7	1327.25 ± 0.7	1675 ± 20	1684 ± 20	7.25 ± 0.44	6.73 ± 0.41
x1 = 0.9719	1339.9 ± 0.72	1335.1 ± 0.73	1673 ± 20	1682 ± 20	6.6 ± 0.4	5.76 ± 0.35
x1 = 1	1347.59 ± 0.68	1344.53 ± 0.68	1661 ± 20	1664 ± 20	5.61 ± 0.34	5.07 ± 0.31
